Consider 2 compounds from the NIST ThermoML archive (doi:10.1016/j.fluid.2018.05.031).

Structures are written as SMILES. ± gives the expanded uncertainty stated by the source.

For this series the following is noted: Liquid; Ebulliometric method (Recirculating still).

Consider `CO` [methanol], for which the Normal boiling temperature came out at 64.50 ± 0.2 °C.

With `COC(C)=O` [methyl ethanoate], the Normal boiling temperature was 56.90 ± 0.2 °C.
